“And” between values parts separate entries of the source, which are not always exact repeats. Identical values can stand only once. Marks after values point to notes of the source that are not given here.
Assays:
[1] = Panel test of body-odor-like smell (KAREI-SHU), 9-hexadecanoic acid heated (Experiment 3); parameters: key: +++: the same or higher level of odor; ++: slightly lower level of odor; +: clearly lower level of odor than that of the control system; conditions: compared with control system
Text: Upon the HSG samples, the level of a body-odor-like smell was examined on a panel test consisting of six professional panels; the panels directly smelled the samples from each glass vial and judged the level of the smells for each samples with test saccharides based on the following four ranks, i.e., the same or higher level of odor (+++), slightly lower level of odor (++), clearly lower level of odor (+), and odorless (−) as compared with the control system. Summing up the data from the panels, the samples tested were totally evaluated.
The content of 2-nonenal in HSG was measured by GC similarly as in Experiment 1 except that 9-hexadecanoic acid or palmitoleic acid was used as a fatty acid and 2-nonenal, a volatile aldehyde, was used as a standard substance. The level of body-odor-like smell, particularly with respect to KAREI-SHU, in each sample was evaluated by panel test in accordance with the method in Experiment 1.

[2] = system: 16 healthy males, ranging from 48 to 75 years old; test: Test on 16 volunteers: KAREI-SHU aldehydes collected from worn underwears (Experiment 8); type: in vivo, human
Experimental: In accordance with the test on volunteer in Experiment 7, the following experiment was conducted with more volunteers, while focusing particularly on the formation inhibitory effect on KAREI-SHU by trehalose. The number of volunteers used in this experiment was 16 healthy males, ranging from 48 to 75 years old. Cotton-made half-sleeve underwears with substantially the same quality were purchased, washed with only water and dried twice in a cyclic manner for volunteers' use as underwears during the test period. As for towels and gauzes used by volunteers during the test period, those with substantially the same quality were purchased, washed with only water and dried twice in a cyclic manner for use. The initiation day of the test was expressed with day 0, and when the volunteers use body-odor-care-goods such as deodorants and bath salts daily, they were asked to suspend their use two days before the initiation of the test, i.e., day −2.
Until about 10 a.m. on day 0, each volunteer was in a usual manner asked to take a bath to sufficiently wash their bodies including hairs. After bathing, they were sequentially allowed to wipe water drops on the surface of their bodies with towels, allowed to wear the prepared underwears, and allowed to spend their daily life as usual.
At about 5 p.m. on day 1, the underwears worn by the volunteers were collected from them and, as underwears for a […], subjected to the following analysis.
Until 10 a.m. on day 1, each volunteer was allowed to take a bath similarly as done on day 0. Just after bathing, they were allowed to wipe water drops on their body surfaces with towels, and sprayed by a sprayer over upper half parts of their bodies with a 2% (w/w) aqueous trehalose solution, which had been previously prepared and provided to the volunteers, followed by extending the solution to homogeneity over the upper half parts in such a manner of tapping on the surfaces of the parts with gauzes, which had been previously soaked in a fresh preparation of the same solution as above. By repeating the steps of spraying and extending for several times before natural dryness, trehalose was applied over the surfaces of upper half parts of the volunteers. Thereafter, the volunteers were allowed to wear new underwears prepared previously and to spend their daily life as usual.
Until about 10 a.m. on day 2, each volunteer was allowed to take a bath similarly as done on day 0. Just after bathing, the volunteers were applied with trehalose over the surfaces of their upper half parts similarly as done on day 1, then allowed to wear new underwears prepared previously and spend their daily life as usual.
At about 5 p.m. on day 3, the underwears worn by the volunteers were collected from the volunteers and, as underwears for a […], subjected to the following analysis.
The underwears collected from the volunteers in the control and test systems were instantly treated by the method in Experiment 7, followed by collecting in a column volatile aldehydes as DNPH derivatives from the underwears. The DNPH derivatives collected in the column were subjected to analysis according to the method in Experiment 7. Using as standard specimens 2-nonenal, 2-octenal, and 2-hexenal, they were separately subjected to GC analysis under the same conditions as above. Based on the gas chromatograms obtained from the above analyses, the contents (μg) of 2-nonenal, 2-octenal, and 2-hexenal, collected from the underwears in the test and control systems, were respectively determined. Respective data obtained from all the volunteers are in Table 8.
As shown in the data of the control system in Table 8, 2-nonenal, 2-octenal and 2-hexenal, known as substances causative of KAREI-SHU, were particularly detected in the underwears from volunteers age over 56. […]

[3] = individual volunteers A-P (age 48-75), 2% (w/w) aqueous trehalose solution on upper half of body

SMILES	Evaluation of panel test [1]	Content of 2-Hexenal collected from volunteers' underwears, mean ± standard deviation, with trehalose application ([2]; Age 54 or under (n = 8), control 0.06 ± 0.18)	Content of 2-Nonenal collected from volunteers' underwears, mean ± standard deviation, with trehalose application ([2]; Age 54 or under (n = 8), control 0.19 ± 0.21)	Content of 2-Octenal collected from volunteers' underwears, mean ± standard deviation, with trehalose application ([2]; Age 54 or under (n = 8), control 1.00 ± 1.00, p < 0.05 to control)	Total content of 2-nonenal, 2-octenal and 2-hexenal collected from volunteers' underwears, mean ± standard deviation, with trehalose application ([2]; Age 54 or under (n = 8), control 1.26 ± 1.02, p < 0.05 to control)	Content of 2-Hexenal collected from volunteers' underwears, mean ± standard deviation, with trehalose application ([2]; Age 56 or higher (n = 8), control 5.44 ± 4.39, p < 0.05 to control)	Content of 2-Octenal collected from volunteers' underwears, mean ± standard deviation, with trehalose application ([2]; Age 56 or higher (n = 8), control 5.51 ± 3.71, p < 0.05 to control)	Content of 2-Nonenal collected from volunteers' underwears, mean ± standard deviation, with trehalose application ([2]; Age 56 or higher (n = 8), control 6.61 ± 3.75, p < 0.05 to control)	Total content of 2-nonenal, 2-octenal and 2-hexenal collected from volunteers' underwears, mean ± standard deviation, with trehalose application ([2]; Age 56 or higher (n = 8), control 17.17 ± 10.14, p < 0.01 to control)	Content of volatile aldehydes collected from volunteer, 2-Hexenal, with trehalose application (test system) [2, 3]	Content of volatile aldehydes collected from volunteer, 2-Octenal, with trehalose application (test system) [2, 3]	Content of volatile aldehydes collected from volunteer, Nonenal, with trehalose application (test system) [2, 3]	Content of volatile aldehydes collected from volunteer, Total of 2-nonenal, 2-octenal and 2-hexenal, with trehalose application (test system) [2, 3]
OC[C@H]1O[C@@](CO)(O[C@H]2O[C@H](CO)[C@@H](O)[C@H](O)[C@H]2O)[C@@H](O)[C@@H]1O [Sucrose, sucrose]	+++	–	–	–	–	–	–	–	–	–	–	–	–
OC[C@H]1O[C@H](O[C@H]2O[C@H](CO)[C@@H](O)[C@H](O)[C@H]2O)[C@H](O)[C@@H](O)[C@@H]1O [Trehalose, trehalose]	–	0.09 ± 0.24^ μg	0.19 ± 0.40^ μg	0.21 ± 0.36^a μg	0.48 ± 0.50^a μg	0.71 ± 1.65^a μg	2.59 ± 1.92^a μg	2.11 ± 1.87^a μg	5.40 ± 4.66^b μg	0.00 μg (13×) and 0.68 μg and 0.95 μg and 4.70 μg	0.24 μg and 0.28 μg and 1.04 μg and 0.00 μg (5×) and 1.82 μg and 1.07 μg and 2.59 μg and 1.13 μg and 5.43 μg and 4.24 μg and 4.42 μg and 0.11 μg	0.17 μg and 0.00 μg (6×) and 0.18 μg and 1.17 μg and 1.66 μg and 1.10 μg and 1.41 μg and 0.35 μg and 2.71 μg and 4.65 μg and 4.99 μg	0.41 μg and 0.97 μg and 1.04 μg and 0.18 μg and 1.17 μg and 3.48 μg and 1.10 μg and 1.07 μg and 4.96 μg and 1.47 μg and 8.14 μg and 8.89 μg and 14.12 μg and 0.00 μg (2×) and 0.11 μg

Reference: US6497862B2, “Composition for inhibiting body odor and uses thereof” (Kabushiki Kaisha Hayashibara, priority 2000, dated 2002)
